Measured values: US9309224B2 (Deciphera Pharmaceuticals, LLC, priority 2013, dated 2016)
pIC50: −log10 of the molar value.

Assays:
[1] = molecular target: T1, unphosphorylated PDGFRβ kinase (uPDGFRβ, Seq. ID No. 3) (Homo sapiens, UniProt P09619); assay: Unphosphorylated PDGFRβ kinase assay (pyruvate kinase/lactate dehydrogenase coupled); assay type: biochemical; settings: ATP 500 μM
T1 construct: purchased DeCode
Description: Unphosyhorylated PDGFRβ (uPDGFRβkinase (Seq. ID No. 3) assay

[2] = molecular target: T2, unphosphorylated c-KIT kinase (uKIT, Seq. ID no. 2) (Homo sapiens, UniProt P10721); assay: uKit kinase assay (pyruvate kinase/lactate dehydrogenase coupled); assay type: biochemical; settings: ATP 2000 μM
T2 construct: uKit with N-terminal GST fusion used for
T2 sequence (P10721 with tags, fused parts or gaps): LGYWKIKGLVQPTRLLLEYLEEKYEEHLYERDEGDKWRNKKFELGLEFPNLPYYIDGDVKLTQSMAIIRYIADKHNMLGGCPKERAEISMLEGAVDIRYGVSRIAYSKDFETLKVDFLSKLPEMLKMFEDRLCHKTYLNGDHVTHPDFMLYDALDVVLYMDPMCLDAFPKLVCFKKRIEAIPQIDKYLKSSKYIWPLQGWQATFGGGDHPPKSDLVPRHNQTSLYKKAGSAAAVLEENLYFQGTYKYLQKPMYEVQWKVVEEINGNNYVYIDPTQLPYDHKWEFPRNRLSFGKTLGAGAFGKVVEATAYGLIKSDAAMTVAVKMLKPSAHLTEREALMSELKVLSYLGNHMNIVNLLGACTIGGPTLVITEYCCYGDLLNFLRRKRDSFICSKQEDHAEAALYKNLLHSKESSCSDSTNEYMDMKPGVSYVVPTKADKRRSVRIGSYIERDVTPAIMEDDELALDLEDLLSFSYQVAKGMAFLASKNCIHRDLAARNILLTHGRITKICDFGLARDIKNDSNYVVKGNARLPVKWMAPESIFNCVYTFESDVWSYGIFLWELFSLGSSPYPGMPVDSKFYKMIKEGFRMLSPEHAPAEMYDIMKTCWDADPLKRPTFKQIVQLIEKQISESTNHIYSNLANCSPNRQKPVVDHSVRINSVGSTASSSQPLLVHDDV
Description: In this assay, the oxidation of NADH (thus the decrease at A340 nm) was continuously monitored spectrophometrically. […] The inhibition reaction was started by mixing serial diluted test compound with the above reaction mixture. The absorption at 340 nm was monitored continuously for 4 hours at 30° C. on Synergy 2 plate reader (BioTech).

osteoclast precursors = assay: Osteoclast tartrate-resistant acid phosphatase assay; assay type: cell-based; settings: Osteoclast; 7-14 days, RANKL and M-CSF
Description: Diluted compound was transferred to a 384-well black clear bottom plate. Two-thousand five hundred osteoclast precursors (Lonza, Walkersville, Md.) were added per well in growth media containing Receptor Activator of Nuclear Factor Kappa-beta ligand (RANKL) and M-CSF (R&D Systems, Minneapolis, Minn.). Plates were incubated for 7-14 days at 37 degrees Celsius, 5% CO2, and 95% humidity to allow differentiation of osteoclast precursors. […] Tartrate-resistant acid phosphatase activity in the supernatant samples was determined using an acid phosphatase assay kit (Sigma, St. Louis, Mo.). Absorbance was measured at 550 nm using a plate reader. Data was analyzed using Prism software (Graphpad, San Diego, Calif.) to calculate IC50 values.

[3] = molecular target: T3, phospho-FMS in THP-1 cells (Homo sapiens, UniProt P07333); assay: Phospho-FMS ELISA assay in THP-1 cells; assay type: cell-based; settings: 4 hours compound, M-CSF stimulated; read-out: pFMS inhibition in THP-1 cells
T3 construct: endogenous in cells; host or cells: THP-1 (ATCC TIB-202)
T3 sequence (P07333 20-972): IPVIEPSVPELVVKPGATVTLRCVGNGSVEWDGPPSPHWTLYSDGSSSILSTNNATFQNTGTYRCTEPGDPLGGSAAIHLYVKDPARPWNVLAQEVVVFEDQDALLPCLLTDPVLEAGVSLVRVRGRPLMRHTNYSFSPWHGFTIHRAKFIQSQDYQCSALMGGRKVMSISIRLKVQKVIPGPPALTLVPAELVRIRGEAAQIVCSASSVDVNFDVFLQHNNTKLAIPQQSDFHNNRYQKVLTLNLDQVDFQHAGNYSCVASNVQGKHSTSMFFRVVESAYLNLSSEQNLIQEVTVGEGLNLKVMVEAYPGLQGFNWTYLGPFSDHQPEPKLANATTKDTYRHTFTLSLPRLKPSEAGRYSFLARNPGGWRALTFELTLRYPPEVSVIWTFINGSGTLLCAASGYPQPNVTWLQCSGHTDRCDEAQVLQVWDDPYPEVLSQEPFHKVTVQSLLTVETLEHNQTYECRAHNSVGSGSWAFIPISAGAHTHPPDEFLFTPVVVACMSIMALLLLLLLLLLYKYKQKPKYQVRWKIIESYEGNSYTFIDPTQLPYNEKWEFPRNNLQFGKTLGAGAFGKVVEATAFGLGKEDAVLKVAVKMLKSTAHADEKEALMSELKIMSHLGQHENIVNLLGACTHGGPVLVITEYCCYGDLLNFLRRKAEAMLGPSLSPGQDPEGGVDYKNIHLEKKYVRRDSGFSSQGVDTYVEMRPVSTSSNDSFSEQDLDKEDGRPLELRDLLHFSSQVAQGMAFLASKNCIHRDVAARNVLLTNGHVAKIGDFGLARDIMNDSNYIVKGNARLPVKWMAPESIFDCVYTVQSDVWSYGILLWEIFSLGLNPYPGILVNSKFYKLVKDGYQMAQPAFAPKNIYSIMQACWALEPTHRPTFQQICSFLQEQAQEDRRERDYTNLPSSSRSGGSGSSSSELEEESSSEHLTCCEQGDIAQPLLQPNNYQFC

[4] = molecular target: T4, unphosphorylated c-FMS kinase (uFMS, Seq. ID no. 1) (Homo sapiens, UniProt P07333); assay: uFMS kinase assay (pyruvate kinase/lactate dehydrogenase coupled); assay type: biochemical; settings: ATP 500 μM
T4 construct: purchased Millipore
T4 sequence (P07333 538-972): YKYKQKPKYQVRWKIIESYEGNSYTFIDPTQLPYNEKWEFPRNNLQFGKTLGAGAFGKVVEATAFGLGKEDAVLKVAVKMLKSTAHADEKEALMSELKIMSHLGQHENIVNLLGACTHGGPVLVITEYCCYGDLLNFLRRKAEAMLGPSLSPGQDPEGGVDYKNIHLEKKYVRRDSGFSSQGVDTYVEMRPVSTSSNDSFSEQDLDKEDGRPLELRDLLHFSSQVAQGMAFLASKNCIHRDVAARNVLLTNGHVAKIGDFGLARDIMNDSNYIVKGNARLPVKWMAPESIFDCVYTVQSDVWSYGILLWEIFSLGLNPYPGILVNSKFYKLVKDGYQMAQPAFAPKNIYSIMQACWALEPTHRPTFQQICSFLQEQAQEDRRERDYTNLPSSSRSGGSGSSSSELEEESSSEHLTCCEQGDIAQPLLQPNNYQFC
Description: In this assay, the oxidation of NADH (thus the decrease at A340 nm) was continuously monitored spectrophometrically. The reaction mixture (100 μL) contained FMS (purchased from Millipore) (10 nM), polyE4Y (1 mg/mL), MgCl2 (10 mM), pyruvate kinase (4 units), lactate dehydrogenase (0.7 units), phosphoenol pyruvate (1 mM), NADH (0.28 mM) and ATP (500 μM) in 90 mM Tris buffer containing 0.2% octyl-glucoside and 1% DMSO, pH 7.5. The inhibition reaction was started by mixing serial diluted test compound with the above reaction mixture. The absorption at 340 nm was monitored continuously for 4 hours at 30° C. on Synergy 2 plate reader. The reaction rate was calculated using the 3 to 4 h time frame. Percent inhibition was obtained by comparison of reaction rate with that of a control (i.e. in the absence of test compound). IC50 values were calculated from a series of percent inhibition values determined at a range of inhibitor concentrations using software routines as implemented in the GraphPad Prism software package.

M-NFS-60 cells = assay: M-NFS-60 cell proliferation assay; assay type: cell-based; settings: 67 h incubation, resazurin
Description: M-NFS-60 Cell Proliferation Assay A serial dilution of test compound was dispensed into a 384-well black clear bottom plate (Corning, Corning, N.Y.). Two thousand five hundred cells were added per well in 50 μL complete growth medium. […] IC50 values were calculated from a series of percent inhibition values determined at a range of inhibitor concentrations using software routines as implemented in the GraphPad Prism software package.

T1 sequence (P09619 557-1105): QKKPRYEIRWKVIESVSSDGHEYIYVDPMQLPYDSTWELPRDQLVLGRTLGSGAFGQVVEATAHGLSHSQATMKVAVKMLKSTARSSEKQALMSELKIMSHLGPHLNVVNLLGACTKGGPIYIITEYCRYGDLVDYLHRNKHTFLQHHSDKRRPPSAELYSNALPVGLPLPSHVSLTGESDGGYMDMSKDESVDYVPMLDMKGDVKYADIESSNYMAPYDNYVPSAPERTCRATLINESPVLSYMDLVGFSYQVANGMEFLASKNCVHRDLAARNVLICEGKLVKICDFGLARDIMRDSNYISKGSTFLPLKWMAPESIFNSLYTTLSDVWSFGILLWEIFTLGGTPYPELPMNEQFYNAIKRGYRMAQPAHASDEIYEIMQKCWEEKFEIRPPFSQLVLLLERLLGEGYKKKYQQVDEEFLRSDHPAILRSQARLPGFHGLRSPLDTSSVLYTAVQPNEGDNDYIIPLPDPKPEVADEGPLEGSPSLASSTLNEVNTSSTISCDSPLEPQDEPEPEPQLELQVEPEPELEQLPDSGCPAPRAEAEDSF

| Compound | pIC50 [1] | pIC50 [2] | pIC50 (osteoclast precursors) | pIC50 [3] | pIC50 [4] | pIC50 (M-NFS-60 cells) |
| --- | --- | --- | --- | --- | --- | --- |
| Cc1nc(NC(=O)NC(=O)C(C)(C)C)ccc1Oc1ccnc(NC(=O)N2CCCC2)c1 [Example 71, N-(4-((2-methyl-6-(3-pivaloylureido)pyridin-3-yl)oxy)pyridin-2-yl)pyrrolidine-1-carboxamide] | 6.00 to 7.00 | < 6.00 | > 8.00 | > 8.00 | > 8.00 | > 8.00 |
| COC1(C(=O)NC(=O)Nc2ccc(Oc3ccnc(NC(=O)C4CC4)c3)cn2)CC1 [Example 41, N-((5-((2-(cyclopropanecarboxamido)pyridin-4-yl)oxy)pyridin-2-yl)carbamoyl)-1-methoxycyclopropanecarboxamide] | 7.00 to 8.00 | 6.00 to 7.00 | > 8.00 | 7.00 to 8.00 | > 8.00 | 7.00 to 8.00 |
| CC(=O)Nc1cc(Oc2ccc(NC(=O)NC(=O)C3CCOCC3)nc2C)ccn1 [Example 7, N-((5-((2-acetamidopyridin-4-yl)oxy)-6-methylpyridin-2-yl)carbamoyl)tetrahydro-2H-pyran-4-carboxamide] | 6.00 to 7.00 | < 6.00 | 7.00 to 8.00 | > 8.00 | 7.00 to 8.00 | 7.00 to 8.00 |
| CCC(=O)Nc1cc(Oc2ccc(NC(=O)NC(=O)C(C)(C)OC)nc2)ccn1 [Example 37, 2-methoxy-2-methyl-N-((5-((2-propionamidopyridin-4-yl)oxy)pyridin-2-yl)carbamoyl)propanamide] | 6.00 to 7.00 | < 6.00 | 7.00 to 8.00 | > 8.00 | > 8.00 | 7.00 to 8.00 |
| CC(C)(C)C(=O)NC(=O)Nc1ccc(Oc2ccnc(NC(=O)N3CCC3)c2)cn1 [Example 48, N-(4-((6-(3-pivaloylureido)pyridin-3-yl)oxy)pyridin-2-yl)azetidine-1-carboxamide] | 7.00 to 8.00 | 6.00 to 7.00 | > 8.00 | > 8.00 | > 8.00 | > 8.00 |
| CCC(=O)Nc1cc(Oc2ccc(NC(=O)NC(=O)C3(C)CC3)nc2)ccn1 [Example 36, 1-methyl-N-((5-((2-propionamidopyridin-4-yl)oxy)pyridin-2-yl)carbamoyl)cyclopropanecarboxamide] | 7.00 to 8.00 | 6.00 to 7.00 | > 8.00 | 7.00 to 8.00 | > 8.00 | 7.00 to 8.00 |
| CC(C)C(=O)NC(=O)Nc1ccc(Oc2ccnc(NC(=O)N3CCN(C)CC3)c2)cn1 [Example 66, N-(4-((6-(3-isobutyrylureido)pyridin-3-yl)oxy)pyridin-2-yl)-4-methylpiperazine-1-carboxamide] | 6.00 to 7.00 | < 6.00 | > 8.00 | > 8.00 | > 8.00 | > 8.00 |
| COC(C)(C)C(=O)NC(=O)Nc1ccc(Oc2ccnc(NC(=O)C3CC3)c2)cn1 [Example 31, N-(4-((6-(3-(2-methoxy-2-methylpropanoyl)ureido)pyridin-3-yl)oxy)pyridin-2-yl)cyclopropanecarboxamide] | 6.00 to 7.00 | 6.00 to 7.00 | > 8.00 | > 8.00 | > 8.00 | 7.00 to 8.00 |
| Cc1nc(NC(=O)NC(=O)C(C)(C)C)ccc1Oc1ccnc(NC(=O)C(C)C)c1 [Example 13, N-((5-((2-isobutyramidopyridin-4-yl)oxy)-6-methylpyridin-2-yl)carbamoyl)pivalamide] | 6.00 to 7.00 | < 6.00 | 7.00 to 8.00 | > 8.00 | > 8.00 | > 8.00 |
| CC(C)C(=O)Nc1cc(Oc2ccc(NC(=O)NC(=O)C(C)(C)C)nc2)ccn1 [Example 17, N-((5-((2-isobutyramidopyridin-4-yl)oxy)pyridin-2-yl)carbamoyl)pivalamide] | 6.00 to 7.00 | < 6.00 | 7.00 to 8.00 | 7.00 to 8.00 | 7.00 to 8.00 | 7.00 to 8.00 |
| CN(C)[C@@H]1CCN(C(=O)Nc2cc(Oc3ccc(NC(=O)NC(=O)C(C)(C)C)nc3)ccn2)C1 [Example 68, (R)-3-(dimethylamino)-N-(4-((6-(3-pivaloylureido)pyridin-3-yl)oxy)pyridin-2-yl)pyrrolidine-1-carboxamide] | 7.00 to 8.00 | < 6.00 | > 8.00 | > 8.00 | > 8.00 | > 8.00 |
| COC1(C(=O)NC(=O)Nc2ccc(Oc3ccnc(NC(C)=O)c3)cn2)CCCC1 [Example 67, N-((5-((2-acetamidopyridin-4-yl)oxy)pyridin-2-yl)carbamoyl)-1-methoxycyclopentanecarboxamide] | 7.00 to 8.00 | 6.00 to 7.00 | > 8.00 | > 8.00 | 7.00 to 8.00 | > 8.00 |
| COC(C)(C)C(=O)NC(=O)Nc1ccc(Oc2ccnc(NC(C)=O)c2)c(C)n1 [Example 20, N-((5-((2-acetamidopyridin-4-yl)oxy)-6-methylpyridin-2-yl)carbamoyl)-2-methoxy-2-methylpropanamide] | < 6.00 | < 6.00 | 7.00 to 8.00 | > 8.00 | 7.00 to 8.00 | > 8.00 |
| COCCNC(=O)Nc1cc(Oc2ccc(NC(=O)NC(=O)C(C)(C)C)nc2)ccn1 [Example 82, N-((5-((2-(3-(2-methoxyethyl)ureido)pyridin-4-yl)oxy)pyridin-2-yl)carbamoyl)pivalamide] | < 6.00 | < 6.00 | 7.00 to 8.00 | > 8.00 | 7.00 to 8.00 | 6.00 to 7.00 |
| CNC(=O)c1cc(Oc2ccc(NC(=O)NC(=O)C(C)(C)OC)nc2)ccn1 [Example 58, 4-((6-(3-(2-methoxy-2-methylpropanoyl)ureido)pyridin-3-yl)oxy)-N-methylpicolinamide] | < 6.00 | < 6.00 | 7.00 to 8.00 | > 8.00 | 7.00 to 8.00 | 7.00 to 8.00 |
| CC(=O)Nc1cc(Oc2ccc(NC(=O)NC(=O)C3(C(F)(F)F)CCC3)nc2)ccn1 [Example 25, N-((5-((2-acetamidopyridin-4-yl)oxy)pyridin-2-yl)carbamoyl)-1-(trifluoromethyl)cyclobutanecarboxamide] | 6.00 to 7.00 | < 6.00 | > 8.00 | > 8.00 | 7.00 to 8.00 | 7.00 to 8.00 |
| CN(C)C1CN(C(=O)Nc2cc(Oc3ccc(NC(=O)NC(=O)C(C)(C)C)nc3)ccn2)C1 [Example 77, 3-(dimethylamino)-N-(4-((6-(3-pivaloylureido)pyridin-3-yl)oxy)pyridin-2-yl)azetidine-1-carboxamide] | 7.00 to 8.00 | 6.00 to 7.00 | > 8.00 | 7.00 to 8.00 | > 8.00 | > 8.00 |
| CC(=O)Nc1cc(Oc2ccc(NC(=O)NC(=O)C(C)(C)C)nc2C)ccn1 [Example 9, N-((5-((2-acetamidopyridin-4-yl)oxy)-6-methylpyridin-2-yl)carbamoyl)pivalamide] | < 6.00 | < 6.00 | > 8.00 | > 8.00 | > 8.00 | > 8.00 |
| CC(=O)Nc1cc(Oc2ccc(NC(=O)NC(=O)C3CCOCC3)nc2)ccn1 [Example 5, N-((5-((2-acetamidopyridin-4-yl)oxy)pyridin-2-yl)carbamoyl)tetrahydro-2H-pyran-4-carboxamide] | 6.00 to 7.00 | 6.00 to 7.00 | > 8.00 | > 8.00 | 7.00 to 8.00 | 7.00 to 8.00 |
| CC(=O)Nc1cc(Oc2cnc(NC(=O)NC(=O)C(C)(C)C)cc2C)ccn1 [Example 42, N-((5-((2-acetamidopyridin-4-yl)oxy)-4-methylpyridin-2-yl)carbamoyl)pivalamide] | 7.00 to 8.00 | 6.00 to 7.00 | > 8.00 | > 8.00 | > 8.00 | > 8.00 |
| CNC(=O)c1cc(Oc2ccc(NC(=O)NC(=O)C3(OC)CCCC3)nc2)ccn1 [Example 64, 4-((6-(3-(1-methoxycyclopentanecarbonyl)ureido)pyridin-3-yl)oxy)-N-methylpicolinamide] | < 6.00 | 6.00 to 7.00 | 7.00 to 8.00 | > 8.00 | > 8.00 | 7.00 to 8.00 |
